Counter-ions that a name gives are not always drawn. Like-named read-outs stand apart in the source and are kept apart here.
Assays:
Format in all cases: biochemical
[1] = biological target: T1, catalytic kinase (JH1) domain of human TYK2 (Homo sapiens, UniProt P29597); test: ADP-Glo kinase assay, TYK2 kinase domain
T1 construct: recombinantly generated catalytic kinase (also known as JH1) domain of human JAK1, JAK2, JAK3 and TYK2
T1 sequence (P29597 897-1176 limits assumed): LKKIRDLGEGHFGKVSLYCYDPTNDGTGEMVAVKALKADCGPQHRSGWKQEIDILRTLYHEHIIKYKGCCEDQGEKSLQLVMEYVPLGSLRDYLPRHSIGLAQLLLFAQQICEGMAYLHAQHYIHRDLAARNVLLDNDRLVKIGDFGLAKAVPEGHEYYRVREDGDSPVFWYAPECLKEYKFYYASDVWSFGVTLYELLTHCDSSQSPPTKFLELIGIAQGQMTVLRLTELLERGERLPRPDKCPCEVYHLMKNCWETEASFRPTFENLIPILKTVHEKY
Protocol: (§1) As summarized in Table 3 below, compounds of the disclosure were assessed for their ability to inhibit TYK2, JAK1, JAK2, and JAK3 activity.
(§2) The kinase activity of recombinantly generated catalytic kinase (also known as JH1) domain of human JAK1, JAK2, JAK3 and TYK2 were evaluated in a plate-based assay using the ADP-Glo™ Kinase Assay platform. […] The reactions proceed for 100 minutes and the catalytic activity is quantified by first depleting the unused ATP, converting the hydrolyzed ADP into ATP to generate luminescence in a luciferase reaction; which is the basis of the ADP-Glo platform. Compounds are tested at either 10 μM or 1 μM top concentration, 11 points of 3-fold dilution. The data is normalized and the percent activity versus log concentration of compound is fitted with a 4-parameter logistic model to generate a curve and an IC50 value.

[2] = biological target: T2, catalytic kinase (JH1) domain of human JAK3 (Homo sapiens, UniProt P52333); test: ADP-Glo kinase assay, JAK3 kinase domain
T2 construct: Catalytic activities of recombinant JAK2, JAK3 and TYK2 kinase domain
Protocol: as §1, §2

[3] = biological target: T3, catalytic kinase (JH1) domain of human JAK2 (Homo sapiens, UniProt O60674); test: ADP-Glo kinase assay, JAK2 kinase domain
T3 construct: Catalytic activities of recombinant JAK2, JAK3 and TYK2 kinase domain
Protocol: as §1, §2

[4] = biological target: T4, catalytic kinase (JH1) domain of human JAK1 (Homo sapiens, UniProt P23458); test: ADP-Glo kinase assay, JAK1 kinase domain
T4 construct: 4 nM of recombinant JAK1 kinase domain is used to phosphorylate
Protocol: as §1, §2

[5] = 2 nM recombinant TYK2 kinase domain, 50 μM JAK3-974 peptide, 10 μM ATP, 100 minutes, read-out: TYK2 biochem IC50 (nM) Mean
[6] = 0.3 nM recombinant JAK3 kinase domain, 50 μM JAK3-974 peptide, 4 μM ATP, 100 minutes, read-out: JAK3 biochem IC50 (nM) Mean
[7] = 0.2 nM recombinant JAK2 kinase domain, 50 μM JAK3-974 peptide, 15 μM ATP, 100 minutes, read-out: JAK2 biochem IC50 (nM) Mean
[8] = 4 nM recombinant JAK1 kinase domain, 50 μM JAK3-342 peptide, 35 μM ATP, 100 minutes, read-out: JAK1 biochem IC50 (nM) Mean

T4 sequence (P23458 875-1153 limits assumed): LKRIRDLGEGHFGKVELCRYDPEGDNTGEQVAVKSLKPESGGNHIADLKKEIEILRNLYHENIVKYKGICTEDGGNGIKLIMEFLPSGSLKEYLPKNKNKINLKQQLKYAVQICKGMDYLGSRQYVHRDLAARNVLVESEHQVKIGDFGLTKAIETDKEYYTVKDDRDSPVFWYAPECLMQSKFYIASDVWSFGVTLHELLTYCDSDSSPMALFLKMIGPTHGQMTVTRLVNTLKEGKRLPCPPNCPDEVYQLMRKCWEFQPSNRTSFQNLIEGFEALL
T2 sequence (P52333 822-1111 limits assumed): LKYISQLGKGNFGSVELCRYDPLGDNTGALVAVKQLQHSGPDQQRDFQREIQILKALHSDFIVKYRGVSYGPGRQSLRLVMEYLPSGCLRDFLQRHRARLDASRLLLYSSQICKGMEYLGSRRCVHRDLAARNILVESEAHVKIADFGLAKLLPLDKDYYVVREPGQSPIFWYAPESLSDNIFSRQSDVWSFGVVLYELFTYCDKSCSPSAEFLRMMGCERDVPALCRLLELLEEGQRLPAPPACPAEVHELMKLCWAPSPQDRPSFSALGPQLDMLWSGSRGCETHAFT
T3 sequence (O60674 849-1124 limits assumed): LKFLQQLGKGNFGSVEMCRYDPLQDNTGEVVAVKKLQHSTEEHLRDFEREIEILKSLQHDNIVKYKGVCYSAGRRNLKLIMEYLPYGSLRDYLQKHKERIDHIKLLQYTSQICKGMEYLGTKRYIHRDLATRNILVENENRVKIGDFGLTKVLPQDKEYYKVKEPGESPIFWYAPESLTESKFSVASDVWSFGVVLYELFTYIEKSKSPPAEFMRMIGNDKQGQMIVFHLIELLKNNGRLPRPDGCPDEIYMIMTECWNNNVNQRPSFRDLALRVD

Row | SMILES | IC50 [1, 5] [nM] | IC50 [2, 6] [nM] | IC50 [3, 7] [nM] | IC50 [4, 8] [nM] | IC50 [1] [nM] | IC50 [2] [nM] | IC50 [3] [nM] | IC50 [4] [nM]
1 | Cn1cc(-c2nc3c(N4CC5CCC(C4)N5[C@H]4CC[C@H]4O)ccnc3[nH]2)cn1 (racemic) [Example 8, (1RS,2SR)-2-(3-(2-(1-methyl-1H-pyrazol-4-yl)-3H-imidazo[4,5-b]pyridin-7-yl)-3,8-diazabicyclo[3.2.1]octan-8-yl)cyclobutan-1-ol] | 830 | > 10000 | 3150 | 7100 | – | – | – | –
2 | Cn1cc(-c2cc3c(N4CC5CCC(C4)N5[C@H]4CC[C@@H]4O)ccnn3c2)cn1 (racemic) [Example 49, rac-(1S,2S)-2-(3-(6-(1-methyl-1H-pyrazol-4-yl)pyrrolo[1,2-b]pyridazin-4-yl)-3,8-diazabicyclo[3.2.1]octan-8-yl)cyclobutan-1-ol] | 425 | > 10000 | 7700 | > 10000 | – | – | – | –
3 | Cn1cc(-c2cc3c(N4CC5CCC(C4)N5[C@H]4CC[C@H]4O)ccnn3c2)cn1 (racemic) [Example 50, rac-(1R,2S)-2-(3-(6-(1-methyl-1H-pyrazol-4-yl)pyrrolo[1,2-b]pyridazin-4-yl)-3,8-diazabicyclo[3.2.1]octan-8-yl)cyclobutan-1-ol] | 505 | > 10000 | 7350 | > 10000 | – | – | – | –
4 | CO[C@H]1CC[C@@H]1N1C2CCC1CN(c1ccnn3cc(-c4cnn(C)c4)cc13)C2 (racemic) [Example 51, Rac-4-(8-((1S,2S)-2-methoxycyclobutyl)-3,8-diazabicyclo[3.2.1]octan-3-yl)-6-(1-methyl-1H-pyrazol-4-yl)pyrrolo[1,2-b]pyridazine] | – | – | – | – | 745 | > 10000 | 6050 | > 10000
5 | Cn1cc(-c2nc3c(N4CC5CCC(C4)N5[C@H]4CC[C@@H]4O)ccnc3[nH]2)cn1 (single isomer, unassigned) [Example 7, (1RS,2RS)-2-(3-(2-(1-methyl-1H-pyrazol-4-yl)-3H-imidazo[4,5-b]pyridin-7-yl)-3,8-diazabicyclo[3.2.1]octan-8-yl)cyclobutan-1-ol] | 610 | > 10000 | 3300 | > 10000 | – | – | – | –
6 | Cn1cc(-c2cc3c(N4CC5CCC(C4)N5[C@H]4CCC45COC5)ccnn3c2)cn1 (single isomer, unassigned) [Example 40] | – | – | – | – | 320 | > 10000 | 1900 | > 10000
7 | Cn1cc(-c2cc3c(N4CC5CCC(C4)N5[C@@H]4CCC45COC5)ccnn3c2)cn1 (single isomer, unassigned) [Example 41] | – | – | – | – | 71 | 8450 | 420 | 2200
8 | Cn1cc(-c2cc3c(N4CC5CCC(C4)N5[C@H]4C[C@H](C#N)C4(C)C)ccnn3c2)cn1 (single isomer, unassigned) [Example 46] | – | – | – | – | 34 | 1850 | 215 | 955
9 | Cn1cc(-c2cc3c(N4CC5CCC(C4)N5[C@H]4C[C@@H](C#N)C4(C)C)ccnn3c2)cn1 (single isomer, unassigned) [Example 47] | – | – | – | – | 2.33 | 130 | 17.3 | 72.3
10 | Cn1cc(-c2cc3c(N4CC5CCC(C4)N5[C@@H]4C[C@H](C#N)C4(C)C)ccnn3c2)cn1 (single isomer, unassigned) [Example 48] | – | – | – | – | 35 | 1350 | 180 | 925
11 | Cn1cc(-c2nc3c(N4CC5CCC(C4)N5[C@H]4C[C@@](C)(C#N)C4)ccnc3[nH]2)cn1 [Example 2, (1S,3s)-1-methyl-3-(3-(2-(1-methyl-1H-pyrazol-4-yl)-3H-imidazo[4,5-b]pyridin-7-yl)-3,8-diazabicyclo[3.2.1]octan-8-yl)cyclobutane-1-carbonitrile] | 1.2 | 68 | 9 | 14.7 | – | – | – | –
12 | Cn1cc(-c2nc3c(N4CC5CCC(C4)N5C4COC4)ccnc3[nH]2)cn1 [Example 9, 2-(1-methyl-1H-pyrazol-4-yl)-7-(8-(oxetan-3-yl)-3,8-diazabicyclo[3.2.1]octan-3-yl)-3H-imidazo[4,5-b]pyridine] | – | – | – | – | 42.5 | > 1000 | 220 | 275
13 | COc1cc(-c2cc3c(N4CC5CCC(C4)N5C4CC(C#N)C4)ccnc3[nH]2)ccn1 (stereo not shown) [Example 13, 3-(3-(2-(2-methoxypyridin-4-yl)-1H-pyrrolo[2,3-b]pyridin-4-yl)-3,8-diazabicyclo[3.2.1]octan-8-yl)cyclobutane-1-carbonitrile] | – | – | – | – | 4.05 | 82 | 14 | 7.9
14 | COc1cc(-c2cc3c(N4CC5CCC(C4)N5[C@H]4C[C@@H](C#N)C4)ccnc3[nH]2)ccn1 [Example 14, (1S,3s)-3-(3-(2-(2-methoxypyridin-4-yl)-1H-pyrrolo[2,3-b]pyridin-4-yl)-3,8-diazabicyclo[3.2.1]octan-8-yl)cyclobutane-1-carbonitrile] | – | – | – | – | 21.5 | 1800 | 170 | 205

More lines, main results first:

Row | IC50 [1, 5] [nM] | IC50 [2, 6] [nM] | IC50 [3, 7] [nM] | IC50 [4, 8] [nM] | SMILES | IC50 [1] [nM] | IC50 [2] [nM] | IC50 [3] [nM] | IC50 [4] [nM]
15 | 13.4 | 850 | 102 | 175 | Cn1cc(-c2nc3c(N4CC5CCC(C4)N5[C@H]4C[C@](C)(C#N)C4)ccnc3[nH]2)cn1 [Example 1, (1R,3r)-1-methyl-3-(3-(2-(1-methyl-1H-pyrazol-4-yl)-3H-imidazo[4,5-b]pyridin-7-yl)-3,8-diazabicyclo[3.2.1]octan-8-yl)cyclobutane-1-carbonitrile] | – | – | – | –
16 | 44 | 1450 | 236 | 430 | Cn1cc(-c2nc3c(N4CC5CCC(C4)N5[C@H]4C[C@H](C#N)C4)ccnc3[nH]2)cn1 [Example 3, (1R,3r)-3-(3-(2-(1-methyl-1H-pyrazol-4-yl)-3H-imidazo[4,5-b]pyridin-7-yl)-3,8-diazabicyclo[3.2.1]octan-8-yl)cyclobutane-1-carbonitrile] | – | – | – | –
17 | 2.47 | 65.3 | 9.93 | 18.7 | Cn1cc(-c2nc3c(N4CC5CCC(C4)N5[C@H]4C[C@@H](C#N)C4)ccnc3[nH]2)cn1 [Example 4, (1S,3s)-3-(3-(2-(1-methyl-1H-pyrazol-4-yl)-3H-imidazo[4,5-b]pyridin-7-yl)-3,8-diazabicyclo[3.2.1]octan-8-yl)cyclobutane-1-carbonitrile] | – | – | – | –
18 | 145 | 9700 | 870 | 900 | CO[C@H]1C[C@H](N2C3CCC2CN(c2ccnc4[nH]c(-c5cnn(C)c5)nc24)C3)C1 [Example 5, 7-(8-((1r,3R)-3-methoxycyclobutyl)-3,8-diazabicyclo[3.2.1]octan-3-yl)-2-(1-methyl-1H-pyrazol-4-yl)-3H-imidazo[4,5-b]pyridine] | – | – | – | –
19 | 305 | > 10000 | 1150 | 1800 | CO[C@H]1C[C@@H](N2C3CCC2CN(c2ccnc4[nH]c(-c5cnn(C)c5)nc24)C3)C1 [Example 6, 7-(8-((1s,3S)-3-methoxycyclobutyl)-3,8-diazabicyclo[3.2.1]octan-3-yl)-2-(1-methyl-1H-pyrazol-4-yl)-3H-imidazo[4,5-b]pyridine] | – | – | – | –
20 | 226 | 1350 | 180 | 340 | Cn1cc(-c2nc3c(N4C[C@H]5CC[C@@H](C4)N5C4CC(C(F)F)C4)ccnc3[nH]2)cn1 (stereo partly drawn) [Example 10, 7-((1R,5S)-8-(3-(difluoromethyl)cyclobutyl)-3,8-diazabicyclo[3.2.1]octan-3-yl)-2-(1-methyl-1H-pyrazol-4-yl)-3H-imidazo[4,5-b]pyridine] | – | – | – | –
21 | 330 | > 5000 | 635 | 970 | Cn1cc(-c2nc3c(N4CC5CCC(C4)N5C4CNC4)ccnc3[nH]2)cn1 [Example 11, 7-(8-(azetidin-3-yl)-3,8-diazabicyclo[3.2.1]octan-3-yl)-2-(1-methyl-1H-pyrazol-4-yl)-3H-imidazo[4,5-b]pyridine hydrochloride] | – | – | – | –
22 | 580 | > 10000 | 2300 | 2850 | CN1CC(N2C3CCC2CN(c2ccnc4[nH]c(-c5cnn(C)c5)nc24)C3)C1 [Example 12, 2-(1-methyl-1H-pyrazol-4-yl)-7-(8-(1-methylazetidin-3-yl)-3,8-diazabicyclo[3.2.1]octan-3-yl)-3H-imidazo[4,5-b]pyridine trifluoroacetate] | – | – | – | –

— patent US20250387400A1, “TYK2 INHIBITORS” (BIOGEN MA INC., priority 2022, published 2025)
